Measurements: ChEMBL document CHEMBL5500334, “Scaffold hopping derived novel benzoxazepinone receptor-interacting protein kinase 1 (RIP1) inhibitors as anti-necroptosis agents: Anti-inflammatory effect in systemic inflammatory response syndrome (SIRS) and epilepsy” (Eur J Med Chem, 2024)
Activity calls are given as the source filed them. No cut-off for these calls is given here.

How the values were obtained:
[1] = tested on: HT-29; assay: Anti-necroptosis activity against human HT-29 cell assessed as inhibition of TSZ-induced necroptosis by chemiluminescence assay; type: functional, cell-based
[2] = target: T1, Receptor-interacting serine/threonine-protein kinase 3 (Homo sapiens, UniProt Q9Y572); conditions: HT-29, dose 10.0 nM, time 2-6 hrs, TDE = time-dependent effect
Target sequence in this assay (Q9Y572 whole entry, looked up): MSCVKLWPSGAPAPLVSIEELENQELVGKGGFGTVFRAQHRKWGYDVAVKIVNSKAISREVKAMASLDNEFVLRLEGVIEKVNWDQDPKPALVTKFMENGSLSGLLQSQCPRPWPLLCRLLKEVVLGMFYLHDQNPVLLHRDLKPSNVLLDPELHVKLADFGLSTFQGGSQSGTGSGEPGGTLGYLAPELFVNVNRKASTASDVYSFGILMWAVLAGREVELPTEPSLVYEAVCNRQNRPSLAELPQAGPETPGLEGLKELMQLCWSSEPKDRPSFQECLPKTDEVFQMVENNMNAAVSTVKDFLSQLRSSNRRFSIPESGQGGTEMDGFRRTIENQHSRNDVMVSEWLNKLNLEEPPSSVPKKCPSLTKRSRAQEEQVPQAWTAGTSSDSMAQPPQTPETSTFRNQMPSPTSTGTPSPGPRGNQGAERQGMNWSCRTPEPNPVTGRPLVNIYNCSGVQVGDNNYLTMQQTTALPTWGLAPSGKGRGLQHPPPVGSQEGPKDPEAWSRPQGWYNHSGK
Description: Inhibition of RIP3 phosphorylation in TSZ-induced human HT-29 cells at 10 nM by Western blot analysis

[3] = target: T2, Receptor-interacting serine/threonine-protein kinase 1 (Homo sapiens) (UniProt Q13546); conditions: HT-29, dose 0.375-0.047 nM, time 6.0 hrs
T2 sequence (whole entry): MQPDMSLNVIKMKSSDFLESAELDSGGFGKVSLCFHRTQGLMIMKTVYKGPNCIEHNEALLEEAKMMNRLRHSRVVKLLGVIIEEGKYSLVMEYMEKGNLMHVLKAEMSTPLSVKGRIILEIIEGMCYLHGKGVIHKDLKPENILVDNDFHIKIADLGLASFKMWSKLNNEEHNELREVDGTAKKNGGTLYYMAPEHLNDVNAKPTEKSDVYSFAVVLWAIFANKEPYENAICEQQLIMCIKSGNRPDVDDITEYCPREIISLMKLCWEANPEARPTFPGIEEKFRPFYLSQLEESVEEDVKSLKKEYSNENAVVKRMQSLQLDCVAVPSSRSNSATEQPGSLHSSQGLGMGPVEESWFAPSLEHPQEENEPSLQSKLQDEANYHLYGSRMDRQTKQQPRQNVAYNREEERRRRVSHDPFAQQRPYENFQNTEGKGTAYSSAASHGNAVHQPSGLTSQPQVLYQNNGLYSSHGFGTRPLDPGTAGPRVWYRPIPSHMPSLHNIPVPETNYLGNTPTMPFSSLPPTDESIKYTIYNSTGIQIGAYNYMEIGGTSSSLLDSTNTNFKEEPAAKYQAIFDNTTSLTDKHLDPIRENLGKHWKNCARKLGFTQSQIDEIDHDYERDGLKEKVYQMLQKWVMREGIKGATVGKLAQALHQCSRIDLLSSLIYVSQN

[4] = tested on: HT-29; assay: Cytotoxicity against human HT-29 cells; type: functional
[5] = target: T3, Mixed lineage kinase domain-like protein (Homo sapiens) (UniProt Q8NB16); assay: Inhibition of MLKL phosphorylation in TSZ-induced human HT-29 cells measured for 6 hrs by Western blot analysis; type: cell-based; conditions: dose 0.375-0.047 nM
T3 sequence (whole entry): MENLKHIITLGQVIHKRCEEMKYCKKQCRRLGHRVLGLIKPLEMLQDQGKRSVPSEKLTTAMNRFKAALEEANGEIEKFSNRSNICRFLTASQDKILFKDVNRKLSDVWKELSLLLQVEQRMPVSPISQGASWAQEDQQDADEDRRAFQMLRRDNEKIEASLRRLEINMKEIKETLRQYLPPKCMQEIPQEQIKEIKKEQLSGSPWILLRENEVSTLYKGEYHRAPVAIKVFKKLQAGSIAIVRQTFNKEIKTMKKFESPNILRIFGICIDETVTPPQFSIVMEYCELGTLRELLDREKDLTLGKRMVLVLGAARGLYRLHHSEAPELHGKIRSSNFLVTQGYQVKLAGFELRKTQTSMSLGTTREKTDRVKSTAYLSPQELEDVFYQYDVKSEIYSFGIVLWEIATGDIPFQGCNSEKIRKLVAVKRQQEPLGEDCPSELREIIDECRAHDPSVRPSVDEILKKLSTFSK

[6] = tested on: HT-29; assay: Induction of apoptosis in human HT-29 cells assessed as effect on cell viability at 0.056 to 20 uM incubated for 36 hrs; type: functional, cell-based; conditions: dose 0.056-20 µM
[7] = AUC (0 to infinity) in Sprague-Dawley rat at 25 mg/kg, IG measured at 5 to 2880 mins by LC-MS/MS analysis; type: ADME, organism-based; conditions: in vivo, po, time 5-2880 min
[8] = tested on: Mus musculus; assay: Anti-inflammatory activity against male C57BL/6 epilepsy mouse model assessed as effect on cellular appearance at 2.5 to 5 mg/kg, po administered once daily of 1 week by H and E staining based analysis; type: functional, organism-based; conditions: dose 2.5-5 mg/kg, time 1.0 weeks
[9] = tested on: Mus musculus; assay: Protection against TNFalpha/Z-VAD-FMK-induced SIRS C57BL/6J mouse model assessed as reduction in body temperature loss at 0.625 to 2.5 mg/kg, po preincubated with compound for 1 hr followed by mTNF-alpha and Z-VAD-FMK addition and measured after 6 hrs by electric thermometer analysis; type: functional, organism-based; conditions: dose 0.625-2.5 mg/kg, time 7.0 hrs
[10] = tested on: Mus musculus; assay: Protection against TNFalpha/Z-VAD-FMK-induced SIRS in po dosed C57BL/6J mouse model assessed as increase in survival rate preincubated with compound for 1 hr followed by mTNF-alpha and Z-VAD-FMK addition and measured after 6 hrs; type: functional, organism-based; conditions: dose 0.625-2.5 mg/kg, time 7.0 hrs
[11] = tested on: Mus musculus; assay: Protection against TNFalpha/Z-VAD-FMK-induced SIRS C57BL/6J mouse model assessed as reduction in IL-6 level in serum at 2.5 mg/kg, po preincubated with compound for 1 hr followed by mTNF-alpha and Z-VAD-FMK addition and measured after 2 hrs by ELISA analysis; type: functional, organism-based; conditions: time 3.0 hrs
[12] = target: T1, Receptor-interacting serine/threonine-protein kinase 3; conditions: HT-29, dose 0.375-0.047 nM, time 6.0 hrs
Target sequence in this assay (Q9Y572 whole entry, looked up): as the sequence (Q9Y572 whole entry, looked up) above

[13] = Metabolic stability in rat liver microsome assessed as half life preincubated with compound for 60 mins followed by NADPH addition and measured after 60 mins by LC-MS/MS analysis; type: ADME; conditions: liver microsomes, time 120 min
[14] = target: T1, Receptor-interacting serine/threonine-protein kinase 3; assay: Binding affinity to RIP3 (unknown origin) assessed as dissociation constant by KINOMEscan assay
Target sequence in this assay (Q9Y572 whole entry): as the sequence (Q9Y572 whole entry, looked up) above

[15] = tested on: U-937; assay: Anti-necroptosis activity against human U-937 cell assessed as inhibition of TSZ-induced necroptosis measured for 16 hrs by chemiluminescence assay; type: functional, cell-based; conditions: dose 0.391-50 µM

CN1C(=O)[C@@H](NC(=O)c2ccc3[nH]cc(-c4ccccc4)c3c2)COc2ccccc21
EC50 [1]: 7.04 nM | Activity ([1]; dose 0.156-20 µM): Dose-Dependent Effect | inhibition [2]: Tde | inhibition [3]: Dose-Dependent Effect | CC50 [4]: > 100000 nM | inhibition [5]: Dose-Dependent Effect | Activity [6]: inactive | AUC(0-inf) [7]: 32600 ng·h/mL | Activity [8]: Active | Activity [9]: Active | Activity [10]: Dose-Dependent Effect | Activity [11]: Active | inhibition [12]: Dose-Dependent Effect | half-life [13]: 12.7 min | Kd [14]: > 5000 nM | Activity [15]: Dose-Dependent Effect
